Test results: patent US20250208149A1, “WEE1 COMPOUND FOR TREATING UTERINE SEROUS CARCINOMA” (Recurium IP Holdings, LLC, priority 2022, published 2025)

Tests used:
Assay type in all cases: cell-based
H1975 cells = test: ZN-c3 dose response, percent cell density (cell titer glow), PPP2R1A siRNA vs scrambled control; conditions: Homo sapiens, NCI-H1975, 72 h
Description: FIG. 3 depicts the percent cell density of H1975 (a second non-small cell lung cancer cell line) cells after treatment with a 10-point dose response of ZN-c3 for 72 hours, comparing cells transfected with siRNA to PPP2R1A against those transfected with a scrambled control siRNA. Percent cell density is calculated using cell titer glow analysis. PPP2R1A siRNA transfected cells have approximately 3.7-fold increase in sensitivity to ZN-c3 (TABLE 2).
The effect of PPP2R1A knockdown on influencing cancer cell susceptibility to ZN-c3 was evaluated. Various cancer cell lines were transfected with PPP2R1A siRNA or control scrambled siRNA and the cells were treated with a 10 point dose response of ZN-c3 for 72 hours. Percent cell density was calculated using cell titer glow analysis. The PPP2R1A siRNA targeted the following bases Chr.19: 52189802-52226425. SiRNA transfection was started 48 hours prior to treatment with ZN-c3. […]
A second non-small cell lung cancer cell line H1975 was treated with PPP2R1A siRNA or control siRNA and transfected cells were assessed for sensitivity to ZN-c3 by measurement of reduction in percent cell density (FIG. 3). PPP2R1A siRNA mediated knockdown of PPP2R1A was evaluated by comparison of PPP2R1A expression in conditions treated with siCTRL and siPPPR12A (FIG. 4).

HEC-59 cells = test: as above; conditions: 72 h, HEC-59 cells (PPP2R1A wild-type)
Description: (§1) FIG. 11 depicts the percent cell density of HEC1B and HEC-59 (endometrial cancer cell lines) cells after treatment with a 10-point dose response of ZN-c3 for 72 hours, comparing cells transfected with siRNA to PPP2R1A against those transfected with a scrambled control siRNA. […] HEC-59 is PPP2R1A wild-type. Percent cell density is calculated using cell titer glow analysis. HEC1B PPP2R1A siRNA transfected cells have approximately 1.4-fold increase in sensitivity to ZN-c3 while HEC-59 PPP2R1A siRNA transfected cells have approximately 2.5 fold increase in sensitivity to ZN-c3 (TABLE 6).
(§2) The effect of PPP2R1A knockdown on influencing cancer cell susceptibility to ZN-c3 was evaluated. Various cancer cell lines were transfected with PPP2R1A siRNA or control scrambled siRNA and the cells were treated with a 10 point dose response of ZN-c3 for 72 hours. Percent cell density was calculated using cell titer glow analysis. The PPP2R1A siRNA targeted the following bases Chr.19: 52189802-52226425. SiRNA transfection was started 48 hours prior to treatment with ZN-c3. The ZN-c3 dose response evaluation included ZN-c3 dosages at […].
(§3) Endometrial cancer cell lines HEC1B and HEC-59 were treated with PPP2R1A siRNA or control siRNA and transfected cells were assessed for sensitivity to ZN-c3 by measurement of reduction in percent cell density (FIG. 11). PPP2R1A siRNA mediated knockdown of PPP2R1A was evaluated by comparison of PPP2R1A protein expression via western blot in conditions treated with siCTRL and siPPPR12A with vinculin used as a control (FIG. 12). Knockdown of PPP2R1A by siRNA was limited in HEC1B cells, due to the missense mutations W257L and L429F within PPP2R1A in this cell line.

HEC1B cells = test: as above; conditions: Homo sapiens, HEC-1B, 72 h, HEC1B cells (PPP2R1A W257L; L429F)
Description: as §1, §2, §3

[1] = test system: HEC1B endometrial cancer cells; test: Percent inhibition of cell growth, ZN-c3, LB-100 or ZN-c3+LB-100 after siCTRL or siPPP2R1A (cell titer glow); conditions: HEC1B, 72 hours, ZN-c3 200 nM, LB-100 1 μM
Description: FIG. 21 depicts the percent inhibition of cell growth in HEC1B endometrial cancer cells after treatment with ZN-c3 alone, the PP2A catalytic inhibitor LB-100 alone, or the combination of ZN-c3+LB-100 after siRNA mediated knockdown of PPP2R1A. […] Percent inhibition is calculated using cell titer glow analysis.
Following observations that both knockdown and knockout of PPP2R1A could sensitize cancer cells to Zn-C3, the effects of pharmacological inhibition of PPP2R1A with the catalytic inhibitor LB-100 were evaluated. Various cancer cell lines were treated with ZN-c3 alone, the PP2A catalytic inhibitor LB-100 alone, or the combination of ZN-c3+LB-100. As in Example 1 and Example 2, the treatment period was 72 hours and percent inhibition was calculated using cell titer glow analysis.
The endometrial cancer cell line HEC1B was also assessed for sensitivity to ZN-c3 alone, LB-100 alone, or the combination of ZN-c3+LB-100 following treatment with siCTRL or siPPP2R1A (FIG. 21).

[2] = test system: SKOV3 ovarian cancer cells; test: ZN-c3 dose response, percent cell density (cell titer glow), CRISPR knockout of PPP2R1A vs non-targeting guide RNA; conditions: Homo sapiens, SK-OV-3, 72 h
Description: FIG. 13 depicts the percent cell density of SKOV3 ovarian cancer cells after treatment with a 10-point dose response of ZN-c3 for 72 hours, comparing cells transduced with a non-targeting guide RNA to against those with genetic knockout of PPP2R1A after transduction with a CRISPR guide RNA targeting PPP2R1A. Percent cell density is calculated using cell titer glow analysis. PPP2R1A CRISPR knockout cells have approximately 1.7-fold increase in sensitivity to ZN-c3 (TABLE 7).
Having observed that siRNA mediated knockdown of PPP2R1A sensitized cancer cell lines to treatment with ZN-c3, it was also of interest to evaluate if CRISPR mediated PPP2R1A knockout produced a similar effect. […] Percent cell density was calculated using cell titer glow analysis.
The ovarian cancer cell line SKOV3 was treated with a CRISPR guide RNA targeting PPP2R1A or nontargeting guide RNA and transfected cells were assessed for sensitivity to ZN-c3 by measurement of reduction in percent cell density (FIG. 13). CRISPR mediated knockout of PPP2R1A was evaluated by comparison of PPP2R1A protein expression via Western blot in conditions treated with nontargeting guide RNA and PPPR12A targeting CRISPR guide RNA with beta actin as a control (FIG. 14).

- EC50 (H1975 cells; siCTRL): 560 nM
- EC50 (H1975 cells; siPPP2R1A): 150 nM
- EC50 ([2]; sgNT (non-targeting guide RNA)): 386 nM
- EC50 ([2]; sgPPP2R1A (CRISPR knockout)): 224 nM
Compound: C=CCn1c(=O)c2cnc(Nc3ccc(N4CCN(C)CC4)cc3)nc2n1-c1ccc2c(n1)[C@@](O)(CC)CC2 [ZN-c3, (R)-2-allyl-1-(7-ethyl-7-hydroxy-6,7-dihydro-5H-cyclopenta[b]pyridin-2-yl)-6-((4-(4-methylpiperazin-1-yl)phenyl)amino)-1,2-dihydro-3H-pyrazolo[3,4-d]pyrimidin-3-one]
- EC50 (HEC-59 cells; siCTRL): 1040 nM
- EC50 (HEC-59 cells; siPPP2R1A): 436 nM
- EC50 (HEC1B cells; siCTRL): 707 nM
- EC50 (HEC1B cells; siPPP2R1A): 490 nM
- percent inhibition of cell growth ([1]; siCTRL): approximately 30%
- percent inhibition in siPPP2R1A treated cells compared to siCTRL treated cells ([1]; siPPP2R1A): approximately the same
